Columns and labels:
[1] = tested on: actinic keratoses lesions; assay: Phototherapy of actinic keratoses lesions with topical photosensitizer prodrug and red light emitting OLED (Device A); assay type: in vivo, person; details: 20% topical solution on individual lesions; illuminated about 14-18 hours after application with red OLED Device A
Excerpt: 5-Aminolevulinic acid HCl (20% topical solution, available as LEVULAN® KERASTICK® from DUSA® Pharmaceuticals) is topically applied to individual lesions on a person suffering from actinic keratoses.
Methyl aminolevulinate (16.8% topical cream, available as METVIXIA® Cream from GALERMA LABORATORIES, Fort Worth, Tex., USA) is topically applied to individual lesions on a person suffering from actinic keratoses.

[2] = tested on: presumed ocular histoplasmosis; design: species or system person; details: in vivo, iv
pathological myopia = assay: Verteporphin phototherapy of pathological myopia, retina illuminated with red OLED (Device A); details: about 6 mg/m^2 i.v. over about 10 minutes; retina illuminated about 15 minutes after start of infusion with red OLED Device A
[3] = tested on: age-related macular degeneration; assay: Verteporphin phototherapy of age-related macular degeneration, retina illuminated with red OLED (Device A); details: about 6 mg/m^2 i.v. over about 10 minutes; retina illuminated about 15 minutes after start of infusion with red OLED Device A

| Compound | number or severity of the lesions after the treatment [1] | patient's vision after treatment [2] | patient's vision after treatment (pathological myopia) | patient's vision after treatment [3] |
| --- | --- | --- | --- | --- |
| Cl.NCC(=O)CCC(=O)O [5-Aminolevulinic acid HCl] | anticipated to be reduced | – | – | – |
| C=Cc1c(C)c2cc3nc(cc4[nH]c(cc5nc(cc1[nH]2)C(C)=C5CCC(=O)O)c(CCC(=O)OC)c4C)[C@@]1(C)C3=CC=C(C(=O)OC)[C@H]1C(=O)OC [Verteporphin] | – | anticipated to be stabilized | anticipated to be stabilized | anticipated to be stabilized |

Source: patent US20120015998A1 (priority 2010, published 2012)
